According to US20250304990A1, “HERBICIDE RESISTANCE” (SYNGENTA CROP PROTECTION AG, priority 2021, published 2025):
Values joined by “and” are separate entries in the source; they are usually repeats but may differ in a detail not shown here. Identical values can stand only once.

Columns and labels:
Cf-496-15 = test: Dose response test, growth in 96-well plates; assay type: cell-based, Chlorella fusca; settings: Cf-496-15 (T277N); 2-fold dilutions from 100 ppm
Description: (§1) Dose response tests with B5U were set-up in 96-well, flat bottomed plates. 200 μl medium was used in each well. 2 μl of 6 day old culture was added to each well, then 2 μl of DMSO or dilution of test compound were added to respective wells. 2-fold dilutions starting at 100 ppm were used per well. Plates were incubated at 25° C., 50 μmol/m^2/s, 16 hour photoperiod.
(§2) This was assessed by a visual inspection of growth in the 96-well plate. The inhibitor concentration at which no growth is observed is then defined as the LD.
(§3) Starting dose was 100 ppm and decreasing with 2-fold dilutions with C. fusca wt, the five HST mutants and the 10 compounds to which the wt is sensitive. Plates were incubated at 25° C., 50 μmol/m2/s, 16 hour photoperiod.

Cf-496-94 = test: Dose response test, growth in 96-well plates; assay type: cell-based, Chlorella fusca; settings: Cf-496-94 (F275L); 2-fold dilutions from 100 ppm
Description: as §1, §2, §3

Cf-496-28 = test: Dose response test, growth in 96-well plates; assay type: cell-based, Chlorella fusca; settings: Cf-496-28 (V276A); 2-fold dilutions from 100 ppm
Description: as §1, §2, §3

Cf-496-19 = test: Dose response test, growth in 96-well plates; assay type: cell-based, Chlorella fusca; settings: Cf-496-19 (F275I); 2-fold dilutions from 100 ppm
Description: as §1, §2, §3

Cf WT = test: Dose response test, growth in 96-well plates; assay type: cell-based, Chlorella fusca; settings: Cf WT; 2-fold dilutions from 100 ppm
Description: as §1, §2, §3

Cf-496-8 = test: Dose response test, growth in 96-well plates; assay type: cell-based, Chlorella fusca; settings: Cf-496-8 (M278L_F279I); 2-fold dilutions from 100 ppm
Description: as §1, §2, §3

WT tobacco [1] = test: Herbicide damage score after spraying, Example 4; assay type: in vivo; settings: WT tobacco (Example 4), per plant
Description: (§4) In order to determine if the newly discovered mutations detailed in Example 1 confer resistance to HST inhibiting compounds when expressed in plants, GM tobacco lines were produced and tested with HST inhibiting compounds. Transgenic tobacco plants expressing the Oryza sativa HST gene with and without mutations were tested.
(§5) Populations of transgenic tobacco comprising 20-30 transgenic events per plant transformation constructs were generated as described in Example 2. These lines were clonally propagated and 1 clone per event was sprayed with 500, 100 or 50 g ai/ha of compound 1+0.2% (w/v) Genapol X080 with a spray volume of 200 L/Ha. (“g ai/ha” refers to grams of active compound per hectare).
(§6) Herbicidal damage was visually assessed across the population and a herbicide damage score given at 7 and 14 days. A score of 0 indicates no visible damage or stunting whereas a score of 100 indicates a complete death of the plant. 20 transgenic events (i.e. individual transgenic plants) from each GM tobacco line were transplanted to soil 1 week prior to spraying with HST inhibiting compounds. WT tobacco was included as a control. The mutated genes are identified in Table 16 below.
(§7) The values in Tables 17 to 23 below refer to percentage of damage to the tested plants and show the damage scores for 20 populations of plants expressing either Oryza sativa WT HST gene (SEQ ID NO. 18), the Oryza sativa HST mutated gene according to SEQ ID NO. 47, the Oryza sativa HST mutated gene according to SEQ ID NO. 48, the Oryza sativa HST mutated gene according to SEQ ID NO. 49, the Oryza sativa HST mutated gene according to SEQ ID NO. 50, or the Oryza sativa HST mutated gene according to SEQ ID NO. 51. A control population of wild-type Samsun tobacco was also assessed for herbicide damage. […] However the mutated versions of the HST gene carrying the F262I, V263A, […], or F266L mutations (SEQ ID NOs: 47, 48, 50 or 51) clearly display increased tolerance.

[2] = system: D4424 (WT Oryza sativa HST) containing tobacco plant; test: Herbicide damage score after spraying, Example 4; assay type: in vivo; settings: for Average percentage damage: D4424, mutation n.a., averaged across transgenic population; for tolerance to herbicide: overexpression of Oryza sativa HST gene (SEQ ID NO.18) in tobacco
Description: as §4, §5, §6, §7

[3] = system: D4428 (F266I mutant Oryza sativa HST) containing tobacco plant; test: Herbicide damage score after spraying, Example 4; assay type: in vivo; settings: averaged across transgenic population
Description: as §4, §5, §6, §7

[4] = system: D4426 (V263A mutant Oryza sativa HST) containing tobacco plant; test: Herbicide damage score after spraying, Example 4; assay type: in vivo; settings: for Average percentage damage: D4426 V263A, averaged across transgenic population
Description: as §4, §5, §6, §7

[5] = system: D4429 (F266L mutant Oryza sativa HST) containing tobacco plant; test: Herbicide damage score after spraying, Example 4; assay type: in vivo; settings: averaged across transgenic population
Description: as §4, §5, §6, §7

[6] = system: D4425 (F262I mutant Oryza sativa HST) containing tobacco plant; test: Herbicide damage score after spraying, Example 4; assay type: in vivo; settings: averaged across transgenic population
Description: as §4, §5, §6, §7

[7] = system: D4427 (T264N mutant Oryza sativa HST) containing tobacco plant; test: Herbicide damage score after spraying, Example 4; assay type: in vivo; settings: for percentage of damage: D4427 OsHST V003 T264N, per event; for Average percentage damage: D4427 T264N, averaged across transgenic population
Description: as §4, §5, §6, §7

WT tobacco [8] = test: Herbicide damage score after spraying, Example 3; assay type: in vivo; settings: WT tobacco control, per plant
Description: as §4, with “lines are to be” for “lines were”, “the Arabidopsis” for “the Oryza sativa”
(§8) Populations of transgenic tobacco comprising 20-30 transgenic events per plant transformation constructs were generated as described in Example 2. These lines were clonally propagated and 1 clone per event was sprayed with 500, 100 or 50 g ai/ha of compound 1+0.2% Genapol X080 with a spray volume of 200 L/Ha (“g ai/ha” refers to grams of active compound per hectare).
as §6, with “control.” for “control. The mutated genes are identified in Table 16 below.”
(§9) The values in Tables 8 to 14 below refer to percentage of damage to the tested plants and show the damage scores for 20 populations of plants expressing either Arabidopsis WT HST gene (SEQ ID NO. 14), the Arabidopsis HST mutated gene according to SEQ ID NO. 27, the Arabidopsis HST mutated gene according to SEQ ID NO. 28, the Arabidopsis HST mutated gene according to SEQ ID NO. 29, the Arabidopsis HST mutated gene according to SEQ ID NO. 30, or the Arabidopsis HST mutated gene according to SEQ ID NO. 31. A control population of wild-type Samsun tobacco was also assessed for herbicide damage. […] However the mutated versions of the HST gene carrying the F276I, V277A, F280I or F280L mutations (SEQ ID NOs: 27, 28, 30 or 31) clearly display increased tolerance.

[9] = system: D4293 (V277A mutant Arabidopsis thaliana HST) containing tobacco plant; test: Herbicide damage score after spraying, Example 3; assay type: in vivo; settings: averaged across transgenic population
Description: as §4, with “lines are to be” for “lines were”, “the Arabidopsis” for “the Oryza sativa”
as §8
as §6, with “control.” for “control. The mutated genes are identified in Table 16 below.”
as §9

[10] = system: D4295 (F280I mutant Arabidopsis thaliana HST) containing tobacco plant; test: Herbicide damage score after spraying, Example 3; assay type: in vivo; settings: averaged across transgenic population
Description: as §4, with “lines are to be” for “lines were”, “the Arabidopsis” for “the Oryza sativa”
as §8
as §6, with “control.” for “control. The mutated genes are identified in Table 16 below.”
as §9

[11] = system: D4294 (T278N mutant Arabidopsis thaliana HST) containing tobacco plant; test: Herbicide damage score after spraying, Example 3; assay type: in vivo; settings: for percentage of damage: D4294 AraHST V003 T278N, per GM event; for Average percentage damage: D4294 T278N, averaged across transgenic population
Description: as §4, with “lines are to be” for “lines were”, “the Arabidopsis” for “the Oryza sativa”
as §8
as §6, with “control.” for “control. The mutated genes are identified in Table 16 below.”
as §9

[12] = system: D4292 (F276I mutant Arabidopsis thaliana HST) containing tobacco plant; test: Herbicide damage score after spraying, Example 3; assay type: in vivo; settings: averaged across transgenic population
Description: as §4, with “lines are to be” for “lines were”, “the Arabidopsis” for “the Oryza sativa”
as §8
as §6, with “control.” for “control. The mutated genes are identified in Table 16 below.”
as §9

[13] = system: D4291 (WT Arabidopsis thaliana HST) containing tobacco plant; test: Herbicide damage score after spraying, Example 3; assay type: in vivo; settings: for Average percentage damage: D4291, mutation n.a., averaged across transgenic population; for tolerance to herbicide: overexpression of Arabidopsis HST gene (SEQ ID NO.14) in tobacco
Description: as §4, with “lines are to be” for “lines were”, “the Arabidopsis” for “the Oryza sativa”
as §8
as §6, with “control.” for “control. The mutated genes are identified in Table 16 below.”
as §9

Structure (SMILES): Cc1nn(C)c(=O)c(-c2c(F)ccc(Cl)c2CCc2ccccc2C(F)(F)F)c1O [B5m, 4-[3-chloro-6-fluoro-2-[2-[2-(trifluoromethyl)phenyl]ethyl]phenyl]-5-hydroxy-2,6-dimethyl-pyridazin-3-one]
- dose response to HST inhibiting compounds (Cf-496-15): >100 ppm
- dose response to HST inhibiting compounds (Cf-496-94): >100 ppm
- dose response to HST inhibiting compounds (Cf-496-28): >100 ppm
- dose response to HST inhibiting compounds (Cf-496-19): >100 ppm
- dose response to HST inhibiting compounds (Cf WT): 12.5 ppm
- dose response to HST inhibiting compounds (Cf-496-8): >100 ppm

Structure (SMILES): Cc1nn(C)c(=O)c(-c2c(F)ccc(Cl)c2CCc2cnn(C)c2)c1O [B5b, 4-[3-chloro-6-fluoro-2-[2-(1-methylpyrazol-4-yl)ethyl]phenyl]-5-hydroxy-2,6-dimethyl-pyridazin-3-one]
- percentage of damage (WT tobacco [1]; T3 B5b 100 gai/ha): 95% and 96% and 97% and 93% and 90%
- Average percentage damage ([2]; T3 B5b 100 gai/ha): 82%
- tolerance to herbicide [2]: does not increase tolerance
- Average percentage damage ([3]; T3 B5b 100 gai/ha): 34%
- percentage of damage ([4]; T3 B5b 100 gai/ha, D4426 OsHST V002 V263A, per event): 5% and 0% and 10% and 3%
- Average percentage damage ([4]; T3 B5b 100 gai/ha): 4%
- Average percentage damage ([5]; T3 B5b 100 gai/ha): 18%
- Average percentage damage ([6]; T3 B5b 100 gai/ha): 36%
- percentage of damage ([7]; T3 B5b 100 gai/ha): 96% and 98% and 95% and 97% and 99% and 90%
- Average percentage damage ([7]; T3 B5b 100 gai/ha): 96%
- percentage of damage (WT tobacco [8]; T3 B5b 100 gai/ha): 90% and 95%
- Average percentage damage ([9]; T3 B5b 100 gai/ha): 15%
- Average percentage damage ([10]; T3 B5b 100 gai/ha): 29%
- percentage of damage ([11]; T3 B5b 100 gai/ha): 100% and 75% and 95% and 98% and 99% and 90%
- Average percentage damage ([11]; T3 B5b 100 gai/ha): 95%
- Average percentage damage ([12]; T3 B5b 100 gai/ha): 26%
- Average percentage damage ([13]; T3 B5b 100 gai/ha): 47%
- tolerance to herbicide [13]: does not increase tolerance

Structure (SMILES): Cc1nn(C)c(=O)c(-c2c(F)ccc(Cl)c2CCc2ccnc(F)c2)c1O [B5a, 4-[3-chloro-6-fluoro-2-[2-(2-fluoro-4-pyridyl)ethyl]phenyl]-5-hydroxy-2,6-dimethyl-pyridazin-3-one]
- percentage of damage (WT tobacco [1]; T2 B5a 100 gai/ha): 90% and 95%
- Average percentage damage ([2]; T2 B5a 100 gai/ha): 93%
- percentage of damage ([2]; T2 B5a 100 gai/ha, D4424 pBin TMV OsHST, per event): 90% and 96% and 95% and 97% and 98% and 85% and 80%
- tolerance to herbicide [2]: does not increase tolerance
- Average percentage damage ([3]; T2 B5a 100 gai/ha): 75%
- Average percentage damage ([4]; T2 B5a 100 gai/ha): 22%
- Average percentage damage ([5]; T2 B5a 100 gai/ha): 42%
- Average percentage damage ([6]; T2 B5a 100 gai/ha): 69%
- percentage of damage ([7]; T2 B5a 100 gai/ha): 95% and 98% and 80% and 97% and 96% and 99% and 100%
- Average percentage damage ([7]; T2 B5a 100 gai/ha): 96%
- percentage of damage (WT tobacco [8]; T2 B5a 100 gai/ha): 95% and 90% and 85%
- Average percentage damage ([9]; T2 B5a 100 gai/ha): 28%
- Average percentage damage ([10]; T2 B5a 100 gai/ha): 60%
- percentage of damage ([11]; T2 B5a 100 gai/ha): 100% and 95% and 90% and 99%
- Average percentage damage ([11]; T2 B5a 100 gai/ha): 96%
- Average percentage damage ([12]; T2 B5a 100 gai/ha): 45%
- Average percentage damage ([13]; T2 B5a 100 gai/ha): 89%
- tolerance to herbicide [13]: does not increase tolerance

Structure (SMILES): Cc1nc2ccc(CCc3c(Cl)ccc(F)c3-c3c(O)c(C)nn(C)c3=O)cc2o1 [B8a, 4-[3-chloro-6-fluoro-2-[2-(2-methyl-1,3-benzoxazol-6-yl)ethyl]phenyl]-5-hydroxy-2,6-dimethyl-pyridazin-3-one]
- percentage of damage (WT tobacco [1]; T4 B8a 50 gai/ha): 95% and 96%
- Average percentage damage ([2]; T4 B8a 50 gai/ha): 36%
- tolerance to herbicide [2]: does not increase tolerance
- Average percentage damage ([3]; T4 B8a 50 gai/ha): 27%
- Average percentage damage ([4]; T4 B8a 50 gai/ha): 14%
- Average percentage damage ([5]; T4 B8a 50 gai/ha): 22%
- Average percentage damage ([6]; T4 B8a 50 gai/ha): 28%
- Average percentage damage ([7]; T4 B8a 50 gai/ha): 46%
- percentage of damage (WT tobacco [8]; T4 B8a 50 gai/ha): 85% and 95% and 90%
- Average percentage damage ([9]; T4 B8a 50 gai/ha): 16%
- Average percentage damage ([10]; T4 B8a 50 gai/ha): 30%
- Average percentage damage ([11]; T4 B8a 50 gai/ha): 90%
- Average percentage damage ([12]; T4 B8a 50 gai/ha): 33%
- Average percentage damage ([13]; T4 B8a 50 gai/ha): 64%
- tolerance to herbicide [13]: does not increase tolerance
